US20260109699A1, “AZOLE DERIVATIVES AS SHP2 INHIBITORS” (IRBM S.P.A., priority 2022, published 2026)

Assays:
[1] = target: T1, SHP-2 enzyme (Met1-Leu525), SHP2wt (Homo sapiens, UniProt Q06124); test: SHP2 inhibition enzymatic assay; type: biochemical; conditions: 0.5 nM SHP-2 activated by 500 nM IRS1 peptide, 75 μM DiFMUP substrate
T1 construct: synthetized by Origene, Met1-Leu525, cat #TP750155; purchased Origene TP750155
T1 sequence (Q06124 1-525): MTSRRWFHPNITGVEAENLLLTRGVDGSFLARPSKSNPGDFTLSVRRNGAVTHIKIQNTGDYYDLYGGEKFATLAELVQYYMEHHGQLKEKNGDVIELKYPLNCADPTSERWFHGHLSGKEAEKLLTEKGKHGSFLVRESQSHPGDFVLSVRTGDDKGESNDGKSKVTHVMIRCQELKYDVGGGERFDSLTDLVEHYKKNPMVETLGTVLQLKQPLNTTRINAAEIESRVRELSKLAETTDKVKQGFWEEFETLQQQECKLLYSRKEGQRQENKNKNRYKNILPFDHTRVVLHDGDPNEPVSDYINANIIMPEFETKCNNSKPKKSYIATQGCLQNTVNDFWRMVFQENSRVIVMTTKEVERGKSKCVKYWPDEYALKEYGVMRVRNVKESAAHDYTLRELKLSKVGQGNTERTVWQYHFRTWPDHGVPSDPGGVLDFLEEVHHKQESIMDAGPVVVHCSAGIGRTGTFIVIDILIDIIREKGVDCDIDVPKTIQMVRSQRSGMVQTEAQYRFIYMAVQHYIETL
In short: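 Human SHP2 (Met1-Leu525, 0.5 nM) activated by 500 nM bis-phosphorylated IRS1 peptide, pre-incubated 30 min with compound, then 75 μM DiFMUP for 30 min at rt in HEPES pH 7.2, NaCl/KCl, EDTA, Tween-20, 5 mM DTT. Reaction quenched with bpV, fluorescence read; IC50 by four-parameter logistic fit.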

[2] = system: phospho-ERK1/2 (Thr202/Tyr204); test: Phospho-ERK cellular assay; type: cell-based; conditions: Homo sapiens; KYSE-520 cells, 2 h at 37° C, TR-FRET; read-out: pERK IC50
In short: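 KYSE-520 cells treated overnight-after-plating with serially diluted compounds for 2 h at 37° C, then lysed. Phospho-ERK1/2 measured by TR-FRET after overnight antibody incubation at rt; inhibition normalized between DMSO (0%) and no-cell (100%) wells, IC50 from four-parameter logistic fit.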

IC50 [1] [nM]	IC50 [2] [nM]	Compound
≤ 50	< 100	N[C@@H]1c2ccnn2CC12CCN(c1cnc(Sc3ccc(F)cc3Cl)cn1)CC2 [Example 34, (S)-1-(5-((2-chloro-4-fluorophenyl)thio)pyrazin-2-yl)-4′H,6′H-spiro[piperidine-4,5′-pyrrolo[1,2-b]pyrazol]-4′-amine]
≤ 50	< 100	N[C@@H]1c2ccnn2CC12CCN(c1cnc(Sc3ccncc3)cn1)CC2 [Example 25, (S)-1-(5-(pyridin-4-ylthio)pyrazin-2-yl)-4′H,6′H-spiro[piperidine-4,5′-pyrrolo[1,2-b]pyrazol]-4′-amine]
≤ 50	< 100	N[C@@H]1c2ccnn2CC12CCN(c1cnc(Sc3cccc(Cl)c3C(F)(F)F)cn1)CC2 [Example 56, (S)-1-(5-((3-chloro-2-(trifluoromethyl)phenyl)thio)pyrazin-2-yl)-4′H,6′H-spiro[piperidine-4,5′-pyrrolo[1,2-b]pyrazol]-4′-amine]
≤ 50	< 100	Cc1cccc(Sc2cnc(N3CCC4(CC3)Cn3nccc3[C@H]4N)cn2)c1Cl [Example 35, (S)-1-(5-((2-chloro-3-methylphenyl)thio)pyrazin-2-yl)-4′H,6′H-spiro[piperidine-4,5′-pyrrolo[1,2-b]pyrazol]-4′-amine]
≤ 50	< 100	COc1c(F)ccc(Sc2cnc(N3CCC4(CC3)Cn3nccc3[C@H]4N)cn2)c1F [Example 55, (S)-1-(5-((2,4-difluoro-3-methoxyphenyl)thio)pyrazin-2-yl)-4′H,6′H-spiro[piperidine-4,5′-pyrrolo[1,2-b]pyrazol]-4′-amine]
≤ 50	< 100	N[C@@H]1c2ccnn2CC12CCN(c1cnc(Sc3ccc(Cl)cc3Cl)cn1)CC2 [Example 22, (S)-1-(5-((2,4-dichlorophenyl)thio)pyrazin-2-yl)-4′H,6′H-spiro[piperidine-4,5′-pyrrolo[1,2-b]pyrazol]-4′-amine]
≤ 50	< 100	Cn1cc2ccc(Sc3cnc(N4CCC5(CC4)Cn4nccc4[C@H]5N)cn3)c(F)c2n1 [Example 83, (S)-1-(5-((7-fluoro-2-methyl-2H-indazol-6-yl)thio)pyrazin-2-yl)-4′H,6′H-spiro[piperidine-4,5′-pyrrolo[1,2-b]pyrazol]-4′-amine]
≤ 50	< 100	N[C@@H]1c2ccnn2CC12CCN(c1cnc(Sc3ccc(OC(F)F)c4ncccc34)cn1)CC2 [Example 73, (S)-1-(5-((8-(difluoromethoxy)quinolin-5-yl)thio)pyrazin-2-yl)-4′H,6′H-spiro[piperidine-4,5′-pyrrolo[1,2-b]pyrazol]-4′-amine]
≤ 50	< 100	CC(C)c1ccccc1Sc1cnc(N2CCC3(CC2)Cn2nccc2[C@H]3N)cn1 [Example 27, (S)-1-(5-((2-isopropylphenyl)thio)pyrazin-2-yl)-4′H,6′H-spiro[piperidine-4,5′-pyrrolo[1,2-b]pyrazol]-4′-amine]
≤ 50	< 100	N[C@@H]1c2ccnn2CC12CCN(c1cnc(Sc3cccc(C4CC4)c3F)cn1)CC2 [Example 69, (S)-1-(5-((3-cyclopropyl-2-fluorophenyl)thio)pyrazin-2-yl)-4′H,6′H-spiro[piperidine-4,5′-pyrrolo[1,2-b]pyrazol]-4′-amine]
≤ 50	100 to 500	N[C@@H]1c2ccnn2CC12CCN(c1cnc(Sc3ccc(C(F)F)cc3F)cn1)CC2 [Example 59, (S)-1-(5-((4-(difluoromethyl)-2-fluorophenyl)thio)pyrazin-2-yl)-4′H,6′H-spiro[piperidine-4,5′-pyrrolo[1,2-b]pyrazol]-4′-amine]
≤ 50	< 100	N[C@@H]1c2ccnn2CC12CCN(c1cnc(Sc3cccc(F)c3F)cn1)CC2 [Example 53, (S)-1-(5-((2,3-difluorophenyl)thio)pyrazin-2-yl)-4′H,6′H-spiro[piperidine-4,5′-pyrrolo[1,2-b]pyrazol]-4′-amine]
≤ 50	< 100	Cn1cc2c(Cl)c(Sc3cnc(N4CCC5(CC4)Cn4nccc4[C@H]5N)cn3)ccc2n1 [Example 84, (S)-1-(5-((4-chloro-2-methyl-2H-indazol-5-yl)thio)pyrazin-2-yl)-4′H,6′H-spiro[piperidine-4,5′-pyrrolo[1,2-b]pyrazol]-4′-amine]
≤ 50	100 to 500	N[C@@H]1c2ccnn2CC12CCN(c1cnc(Sc3ccc(C(F)(F)F)cc3)cn1)CC2 [Example 19, (S)-1-(5-((4-(trifluoromethyl)phenyl)thio)pyrazin-2-yl)-4′H,6′H-spiro[piperidine-4,5′-pyrrolo[1,2-b]pyrazol]-4′-amine]
50 to 300	> 500	Cn1c(N2CCC3(CC2)Cn2nccc2[C@H]3N)ccc(-c2cccc(Cl)c2Cl)c1=O [Example 11, (S)-6-(4′-amino-4′H,6′H-spiro[piperidine-4,5′-pyrrolo[1,2-b]pyrazol]-1-yl)-3-(2,3-dichlorophenyl)-1-methylpyridin-2(1H)-one]
≤ 50	< 100	N[C@@H]1c2ccnn2CC12CCN(c1cnc(Sc3cccc4c3CCC4)cn1)CC2 [Example 46, (S)-1-(5-((2,3-dihydro-1H-inden-4-yl)thio)pyrazin-2-yl)-4′H,6′H-spiro[piperidine-4,5′-pyrrolo[1,2-b]pyrazol]-4′-amine]
≤ 50	< 100	N[C@@H]1c2ccnn2CC12CCN(c1cnc(Sc3cccc(C(F)F)c3F)cn1)CC2 [Example 58, (S)-1-(5-((3-(difluoromethyl)-2-fluorophenyl)thio)pyrazin-2-yl)-4′H,6′H-spiro[piperidine-4,5′-pyrrolo[1,2-b]pyrazol]-4′-amine]
≤ 50	< 100	N[C@@H]1c2ccnn2CC12CCN(c1cnc(Sc3ccc(F)cc3F)cn1)CC2 [Example 32, (S)-1-(5-((2,4-difluorophenyl)thio)pyrazin-2-yl)-4′H,6′H-spiro[piperidine-4,5′-pyrrolo[1,2-b]pyrazol]-4′-amine]
≤ 50	100 to 500	N[C@@H]1c2ccnn2CC12CCN(c1cnc(Sc3cccc4c3CCO4)cn1)CC2 [Example 38, (S)-1-(5-((2,3-dihydrobenzofuran-4-yl)thio)pyrazin-2-yl)-4′H,6′H-spiro[piperidine-4,5′-pyrrolo[1,2-b]pyrazol]-4′-amine]
≤ 50	< 100	N[C@@H]1c2ccnn2CC12CCN(c1cnc(Sc3ccccc3C(F)F)cn1)CC2 [Example 72, (S)-1-(5-((2-(difluoromethyl)phenyl)thio)pyrazin-2-yl)-4′H,6′H-spiro[piperidine-4,5′-pyrrolo[1,2-b]pyrazol]-4′-amine]
≤ 50	< 100	COc1cccc2c(Sc3cnc(N4CCC5(CC4)Cn4nccc4[C@H]5N)cn3)ccnc12 [Example 37, (S)-1-(5-((8-methoxyquinolin-4-yl)thio)pyrazin-2-yl)-4′H,6′H-spiro[piperidine-4,5′-pyrrolo[1,2-b]pyrazol]-4′-amine]
≤ 50	100 to 500	Cc1cccc(-c2ncc3c(N4CCC5(CC4)Cn4nccc4[C@H]5N)nccn23)c1F [Example 12, (S)-1-(3-(2-fluoro-3-methylphenyl)imidazo[1,5-a]pyrazin-8-yl)-4′H,6′H-spiro[piperidine-4,5′-pyrrolo[1,2-b]pyrazol]-4′-amine]
≤ 50	< 100	N[C@@H]1c2ccnn2CC12CCN(c1cnc(Sc3ccccc3)cn1)CC2 [Example 24, (S)-1-(5-(phenylthio)pyrazin-2-yl)-4′H,6′H-spiro[piperidine-4,5′-pyrrolo[1,2-b]pyrazol]-4′-amine]
≤ 50	< 100	N[C@@H]1c2ccnn2CC12CCN(c1cnc(Sc3ccc(F)c4ncccc34)cn1)CC2 [Example 68, (S)-1-(5-((8-fluoroquinolin-5-yl)thio)pyrazin-2-yl)-4′H,6′H-spiro[piperidine-4,5′-pyrrolo[1,2-b]pyrazol]-4′-amine]
